This is an account of results in US8642590B2, “Alkylcyclohexylethers of dihydrotetraazabenzoazulenes” (Hoffmann-La Roche Inc., priority 2008, dated 2014).

pKi: −log10 of the molar value. Where a name gives a salt, the structure may show the parent alone.

One may read the pKi as the Ki on a negative log10 scale, so that one unit is a factor of ten. A lower pKi goes with a large Ki.

The first experiment deals with T1, human V1a receptor (Homo sapiens, UniProt P37288).
T1 construct: expressed in transfected cells; host or cells: HEK293 cells, transiently transfected; cell membranes prepared
T1 sequence (P37288 whole entry): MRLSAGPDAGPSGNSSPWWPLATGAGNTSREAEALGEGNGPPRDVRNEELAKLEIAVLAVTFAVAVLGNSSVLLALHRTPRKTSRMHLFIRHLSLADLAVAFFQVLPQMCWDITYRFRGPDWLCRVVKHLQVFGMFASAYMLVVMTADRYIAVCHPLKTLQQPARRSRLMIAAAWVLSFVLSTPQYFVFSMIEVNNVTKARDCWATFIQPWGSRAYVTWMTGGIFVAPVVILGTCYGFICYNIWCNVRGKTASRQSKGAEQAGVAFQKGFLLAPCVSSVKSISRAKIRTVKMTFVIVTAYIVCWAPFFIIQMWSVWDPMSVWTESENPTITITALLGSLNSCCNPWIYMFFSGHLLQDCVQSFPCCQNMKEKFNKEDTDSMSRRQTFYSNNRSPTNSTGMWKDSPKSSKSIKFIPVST
Nature of the experiment: human V1a receptor binding study (3H-Vasopressin, SPA beads, HEK293 membranes).
Conditions: not given
The procedure: The human V1a receptor was cloned by RT-PCR from total human liver RNA. The coding sequence was subcloned in an expression vector after sequencing to confirm the identity of the amplified sequence. […] Cell membranes were prepared from HEK293 cells transiently transfected with the expression vector and grown in 20 liter fermenters with the following protocol.
50 g of cells are resuspended in 30 ml freshly prepared ice cold Lysis buffer (50 mM HEPES, 1 mM EDTA, 10 mM magnesium dichloride adjusted to pH=7.4+complete cocktail of protease inhibitor (Roche Diagnostics)). Homogenized with Polytron for 1 min and sonicated on ice for 2×2 minutes at 80% intensity (Vibracell sonicator). The preparation is centrifuged 20 min at 500 g at 4° C., the pellet is discarded and the supernatant centrifuged 1 hour at 43,000 g at 4° C. (19,000 rpm). The pellet is resuspended in 12.5 ml Lysis buffer+12.5 ml Sucrose 20% and homogenized using a Polytron for 1-2 min. The protein concentration is determined by the Bradford method and aliquots are stored at −80° C. until use. For binding studies 60 mg Yttrium silicate SPA beads (Amersham) are mixed with an aliquot of membrane in binding buffer (50 mM Tris, 120 mM sodium chloride, 5 mM potassium chloride, 2 mM Calcium dichloride, 10 mM magnesium dichloride) for 15 minutes with mixing. 50 μl of bead/membrane mixture is then added to each well of a 96 well plate, followed by 50 μl of 4 nM 3H-Vasopressin (American Radiolabeled Chemicals). For total binding measurement 100 μl of binding buffer are added to the respective wells, for non-specific binding 100 μl of 8.4 mM cold vasopressin and for compound testing 100 μl of a serial dilution of each compound in 2% dimethyl sulfoxide. The plate is incubated 1 h at room temperature, centrifuged 1 min at 1000 g and counted on a Packard Top-Count. Non-specific binding counts are subtracted from each well and data is normalized to the maximum specific binding set at 100%. To calculate an IC 50 the curve is fitted using a non-linear regression model (XLfit) and the Ki is calculated using the Cheng-Prussoff equation.
`CC(C)(C)OC(=O)N1Cc2cc(Cl)ccc2-n2c(nnc2[C@H]2CC[C@H](OC3CCCCC3)CC2)C1` [Example 39, trans-8-Chloro-1-(4-cyclohexyloxy-cyclohexyl)-4H,6H-2,3,5,10b-tetraaza-benzoazulene-5-carboxylic acid tert-butyl ester] gave a pKi of 8.19.

Still in this experiment, the particulars now being: membranes of HEK293 cells transiently transfected with human V1a receptor; 3H-Vasopressin; Ki calculated using the Cheng-Prussoff equation; read-out: pKi (hV1a) (converted).
As to `Clc1ccc2c(c1)CNCc1nnc([C@H]3CC[C@@H](OC4CCOCC4)CC3)n1-2` [Example 63, cis-8-Chloro-1-[4-(tetrahydro-pyran-4-yloxy)-cyclohexyl]-5,6-dihydro-4H-2,3,5,10b-tetraaza-benzoazulene hydrochloride], the Ki is 288 nM. The same measure, in the same setting: the same measure for `CN1Cc2cc(Cl)ccc2-n2c(nnc2[C@H]2CC[C@@H](OC3CCOCC3)CC2)C1` [Example 64, cis-8-Chloro-5-methyl-1-[4-(tetrahydro-pyran-4-yloxy)-cyclohexyl]-5,6-dihydro-4H-2,3,5,10b-tetraaza-benzoazulene]: 17 nM; for `CN1Cc2cc(Cl)ccc2-n2c(nnc2[C@H]2CC[C@H](OC3CCC3)CC2)C1` [Example 32, trans-8-Chloro-1-(4-cyclobutoxy-cyclohexyl)-5-methyl-5,6-dihydro-4H-2,3,5,10b-tetraaza-benzo[e]azulene]: 1.29 nM; for `CC[C@H](C)O[C@H]1CC[C@H](c2nnc3n2-c2ccc(Cl)cc2CN(C)C3)CC1` (single isomer, unassigned) [Example 28, (+)-trans-1-(4-sec-Butoxy-cyclohexyl)-8-chloro-5-methyl-5,6-dihydro-4H-2,3,5,10b-tetraaza-benzo[e]azulene]: 1.58 nM. On the same count and under the same terms, the same measure for `CCC(C)O[C@H]1CC[C@H](c2nnc3n2-c2ccc(Cl)cc2CN(C)C3)CC1` (mixture of isomers) [Example 27, (RS)-trans-1-(4-sec-Butoxy-cyclohexyl)-8-chloro-5-methyl-5,6-dihydro-4H-2,3,5,10b-tetraaza-benzo[e]azulene]: 2.09 nM; for `CC(C)O[C@H]1CC[C@H](c2nnc3n2-c2ccc(Cl)cc2CN(C(=O)OC(C)(C)C)C3)CC1` [Example 8, trans-8-Chloro-1-(4-isopropoxy-cyclohexyl)-4H,6H-2,3,5,10b-tetraaza-benzo[e]azulene-5-carboxylic acid tert-butyl ester]: 1.29 nM. Same read-out and setting: the same measure for `CC(CO)O[C@H]1CC[C@H](c2nnc3n2-c2ccc(Cl)cc2CNC3)CC1` (mixture of isomers) [Example 51, (RS)-trans-2-[4-(8-Chloro-5,6-dihydro-4H-2,3,5,10b-tetraaza-benzo[e]azulen-1-yl)-cyclohexyloxy]-propan-1-ol hydrochloride]: 186 nM; for `CN1Cc2cc(Cl)ccc2-n2c(nnc2[C@H]2CC[C@H](OC3CCCCC3)CC2)C1` [Example 41, trans-8-Chloro-1-(4-cyclohexyloxy-cyclohexyl)-5-methyl-5,6-dihydro-4H-2,3,5,10b-tetraaza-benzoazulene]: 2.88 nM; for `CC(C)O[C@H]1CC[C@H](c2nnc3n2-c2ccc(Cl)cc2CN(CCO)C3)CC1` [Example 12, trans-2-[8-Chloro-1-(4-isopropoxy-cyclohexyl)-4H,6H-2,3,5,10b-tetraaza-benzoazulen-5-yl]-ethanol]: 2.29 nM. Turning to `CC(=O)OCC(=O)N1Cc2cc(Cl)ccc2-n2c(nnc2[C@H]2CC[C@H](OC(C)C)CC2)C1` [Example 16, trans-Acetic acid 2-[8-chloro-1-(4-isopropoxy-cyclohexyl)-4H,6H-2,3,5,10b-tetraaza-benzoazulen-5-yl]-2-oxo-ethyl ester], the Ki is 3.47 nM. Same read-out and setting: next, `Clc1ccc2c(c1)CNCc1nnc([C@H]3CC[C@@H](OC4CCCCC4)CC3)n1-2` [Example 43, cis-8-Chloro-1-(4-cyclohexyloxy-cyclohexyl)-5,6-dihydro-4H-2,3,5,10b-tetraaza-benzoazulene hydrochloride]: 174 nM; `CCC(C)O[C@H]1CC[C@H](c2nnc3n2-c2ccc(Cl)cc2CN(C(=O)OC(C)(C)C)C3)CC1` (mixture of isomers) [Example 25, (RS)-trans-1-(4-sec-Butoxy-cyclohexyl)-8-chloro-4H,6H-2,3,5,10b-tetraaza-benzo[e]azulene-5-carboxylic acid tert-butyl ester]: 3.72 nM. On the same count and under the same terms, next, `CCC(C)O[C@H]1CC[C@H](c2nnc3n2-c2ccc(Cl)cc2CNC3)CC1` (mixture of isomers) [Example 26, (RS)-trans-1-(4-sec-Butoxy-cyclohexyl)-8-chloro-5,6-dihydro-4H-2,3,5,10b-tetraaza-benzo[e]azulene hydrochloride]: 12.6 nM; `CC(CC(F)(F)F)O[C@H]1CC[C@H](c2nnc3n2-c2ccc(Cl)cc2CN(C)C3)CC1` (mixture of isomers) [Example 56, (RS)-trans-8-Chloro-5-methyl-1-[4-(3,3,3-trifluoro-1-methyl-propoxy)-cyclohexyl]-5,6-dihydro-4H-2,3,5,10b-tetraaza-benzo[e]azulene]: 6.76 nM; `CC(C)O[C@H]1CC[C@H](c2nnc3n2-c2ccc(F)cc2CN(C)C3)CC1` [Example 21, trans-8-Fluoro-1-(4-isopropoxy-cyclohexyl)-5-methyl-5,6-dihydro-4H-2,3,5,10b-tetraaza-benzo[e]azulene]: 29.5 nM. On the same count and under the same terms, next, `CCO[C@H]1CC[C@@H](c2nnc3n2-c2ccc(Cl)cc2CN(C(=O)OC(C)(C)C)C3)CC1` [Example 5, cis-8-Chloro-1-(4-ethoxy-cyclohexyl)-4H,6H-2,3,5,10b-tetraaza-benzo[e]azulene-5-carboxylic acid tert-butyl ester]: 14.1 nM.

Consider `Clc1ccc2c(c1)CNCc1nnc([C@H]3CC[C@H](OC4CCCC4)CC3)n1-2` [Example 37, trans-8-Chloro-1-(4-cyclopentyloxy-cyclohexyl)-5,6-dihydro-4H-2,3,5,10b-tetraaza-benzo[e]azulene hydrochloride], for which the Ki is 3.47 nM. Regarding `CC(C)O[C@H]1CC[C@H](c2nnc3n2-c2ccc(Cl)cc2CN(C(=O)CO)C3)CC1` [Example 17, trans-1-[8-Chloro-1-(4-isopropoxy-cyclohexyl)-4H,6H-2,3,5,10b-tetraaza-benzoazulen-5-yl]-2-hydroxy-ethanone], the Ki is 3.47 nM.

For the compound `FC(F)(F)O[C@H]1CC[C@H](c2nnc3n2-c2ccc(Cl)cc2CNC3)CC1` [Example 66, trans-8-Chloro-1-(4-trifluoromethoxy-cyclohexyl)-5,6-dihydro-4H-2,3,5,10b-tetraaza-benzo[e]azulene hydrochloride], the Ki is 195 nM.

As to `CN1Cc2cc(Cl)ccc2-n2c(nnc2[C@H]2CC[C@H](OC3COC3)CC2)C1` [Example 58, trans-8-Chloro-5-methyl-1-[4-(oxetan-3-yloxy)-cyclohexyl]-5,6-dihydro-4H-2,3,5,10b-tetraaza-benzo[e]azulene], the Ki was 46.8 nM. Same read-out and setting: the same measure for `CC(=O)N1Cc2cc(Cl)ccc2-n2c(nnc2[C@H]2CC[C@H](OC(C)C)CC2)C1` [Example 18, trans-1-[8-Chloro-1-(4-isopropoxy-cyclohexyl)-4H,6H-2,3,5,10b-tetraaza-benzoazulen-5-yl]-ethanone]: 2.51 nM; for `CCO[C@H]1CC[C@@H](c2nnc3n2-c2ccc(Cl)cc2CN(C)C3)CC1` [Example 7, cis-8-Chloro-1-(4-ethoxy-cyclohexyl)-5-methyl-5,6-dihydro-4H-2,3,5,10b-tetraaza-benzo[e]azulene]: 55 nM; for `CO[C@H]1CC[C@@H](c2nnc3n2-c2ccc(Cl)cc2CN(C)C3)CC1` [Example 1, cis-8-Chloro-1-(4-methoxy-cyclohexyl)-5-methyl-5,6-dihydro-4H-2,3,5,10b-tetraaza-benzo[e]azulene]: 93.3 nM. With `CC(C)O[C@H]1CC[C@@H](c2nnc3n2-c2ccc(Cl)cc2CN(C(=O)OC(C)(C)C)C3)CC1` [Example 22, cis-8-Chloro-1-(4-isopropoxy-cyclohexyl)-4H,6H-2,3,5,10b-tetraaza-benzo[e]azulene-5-carboxylic acid tert-butyl ester], the Ki is 8.91 nM. Regarding `CC(C)(C)OC(=O)N1Cc2cc(Cl)ccc2-n2c(nnc2[C@H]2CC[C@H](OC(C)(C)C)CC2)C1` [Example 68, trans-1-(4-tert-Butoxy-cyclohexyl)-8-chloro-4H,6H-2,3,5,10b-tetraaza-benzo[e]azulene-5-carboxylic acid tert-butyl ester], the Ki was 3.8 nM. Same read-out and setting: the same measure for `CCO[C@H]1CC[C@H](c2nnc3n2-c2ccc(Cl)cc2CN(C)C3)CC1` [Example 4, trans-8-Chloro-1-(4-ethoxy-cyclohexyl)-5-methyl-5,6-dihydro-4H-2,3,5,10b-tetraaza-benzo[e]azulene]: 6.76 nM; for `CC(C)O[C@H]1CC[C@@H](c2nnc3n2-c2ccc(Cl)cc2CN(C)C3)CC1` [Example 24, cis-8-Chloro-1-(4-isopropoxy-cyclohexyl)-5-methyl-5,6-dihydro-4H-2,3,5,10b-tetraaza-benzo[e]azulene]: 26.9 nM.
